Data as given in EP1272183B1, “METHODS AND COMPOSITIONS USEFUL IN ENHANCING OXYGEN DELIVERY TO CELLS” (Niadyne Corporation, priority 2000, dated 2001).

Tests used:
skin of human volunteers = experiment: Visual observation of vasodilation (blushing) after topical application of niacin ester lotions to the forearm; format: in vivo; conditions: for Vasodilation at 0.1% / Vasodilation Effect at 0.1% Duration / Vasodilation Effect at 0.1% Onset: 0.1% in skin lotion; for Vasodilation at 0.1% / Vasodilation at 1.0%: anterior surface of forearm, visual observation of blushing; for Vasodilation at 1.0%: 1.0% in skin lotion; for Vasodilation Effect at 0.1% Duration / Vasodilation Effect at 0.1% Onset: visual determination
Procedure: This example details the first of two sets of experiments designed to determine the vasodilation effect of alkyl niacin esters. Formulations were prepared by combining the alkyl esters referred to supra in a skin lotion, at 0.1% and 1.0% concentrations. The lotions were applied topically to the skin of human volunteers on the anterior surface of a forearm. Vasodilation was observed visually, i.e., by observing blushing at the site of application, or lack thereof. Both onset and duration of vasodilation were measured.
Table 1: Properties of Niacin Esters

[1] = Determination of log P (Poct/w) values in accordance with Harnisch, et al.; format: physicochemical; conditions: experimentally determined, following Harnisch
Procedure: The Poct/w values for these compounds were determined in accordance with Harnisch, et al., J. Chromatog.

skin = experiment: Skin oxygen and CO2 content measured with a transcutaneous monitor after topical application; format: in vivo, human
Procedure: To examine this issue, the oxygen content of skin to which the octyl ester discussed supra was determined directly, using a transcutaneous oxygen monitor. The 1% formulation of the octyl ester was applied to skin for 30 minutes. After this thirty minute period, the skin was cleaned with soap and water, wiped with an alcohol swab, and a drop of deionized water was placed on the sensor surface before its attachment to the anterior surface of the volunteers' forearms. The transcutaneous values were recorded constantly, and stored by the instrument. The monitor measures relative oxygen content, because the temperature at which the monitor operates does impact the oxygen permeability of the stratum corneum. See, e.g., Martin, Resp. […] The sensor was calibrated at 4 hour intervals, or whenever the sensor temperature was changed.
The monitor was operated at a temperature of 40°C. Values are given for both a control, and the formulation described herein.
In a follow-up experiment, the monitor was op erated at 38°C, and both O2 and CO2 were measured, with a combined transcutaneous oxygen and CO2 monitor. […] The control is represented by the dotted line.
Parallel experiments were carried out using 0.1% octyl niacin ester lotion, and a lotion containing octyl niacin ester (0.1 %), and 0.1 % butyl benzoate.
Oxygen content was measured in the same way as is described, supra, or using other techniques known to the art.

[2] = monitor at 38°C, versus control, Figure 3

For COC(=O)c1cccnc1 [1 carbon], the “Vasodilation at 0.1%” value (skin of human volunteers) was “Yes” and the “Vasodilation at 1.0%” value (skin of human volunteers) was “Yes”.

With CCOC(=O)c1cccnc1 [2 carbons, Ethyl niacin] the “Vasodilation at 0.1%” value (skin of human volunteers) was “Yes”, the “Vasodilation Effect at 0.1% Duration” value (skin of human volunteers) was 30 to 45 min and the “Vasodilation Effect at 0.1% Onset” value (skin of human volunteers) was 5 to 10 min. The “Vasodilation at 1.0%” value (skin of human volunteers) was “Yes”.

With CCCCOC(=O)c1cccnc1 [4 carbons] the logP [1] was 2.4, the “Vasodilation at 0.1%” value (skin of human volunteers) was “Yes” and the “Vasodilation at 1.0%” value (skin of human volunteers) was “Yes”.

With CCCCCCOC(=O)c1cccnc1 [6 carbons, Hexyl niacin] the logP [1] was 3.5, the “Vasodilation at 0.1%” value (skin of human volunteers) was “Yes” and the “Vasodilation Effect at 0.1% Duration” value (skin of human volunteers) was 60 to 90 min. The “Vasodilation Effect at 0.1% Onset” value (skin of human volunteers) was 10 to 15 min and the “Vasodilation at 1.0%” value (skin of human volunteers) was “Yes”.

For CCCCCCCCOC(=O)c1cccnc1 [8 carbons, Octyl niacin], the “skin oxygen (transcutaneous oxygen monitor)” value (skin; 1% formulation applied to skin for 30 minutes, monitor at 40°C, versus control, Figure 2) was “sustained increase in skin oxygen”, the “CO2 content (combined transcutaneous oxygen and CO2 monitor)” value (skin; [2]) was “decrease in CO2 content” and the “skin oxygen content (combined transcutaneous oxygen and CO2 monitor)” value (skin; [2]) was “sustained increase in skin oxygen content”. The “Vasodilation at 0.1%” value (skin of human volunteers) was “Yes”, the “Vasodilation Effect at 0.1% Duration” value (skin of human volunteers) was 240 to 360 min and the “Vasodilation Effect at 0.1% Onset” value (skin of human volunteers) was 10 to 20 min. The “Vasodilation Effect at 0.1% Duration” value (skin of human volunteers; listed as C8) was “longest effect” and the “Vasodilation at 1.0%” value (skin of human volunteers) was “Yes”.

For CCCCCCCCCOC(=O)c1cccnc1 [9 carbons], the “Vasodilation at 0.1%” value (skin of human volunteers) was “No”, the “Vasodilation at 1.0%” value (skin of human volunteers) was “Yes” and the “Vasodilation at 1.0%” value (skin of human volunteers; listed as C9) was “caused vasodilation”.

With CCCCCCCCCCOC(=O)c1cccnc1 [10 carbons] the logP [1] was 5.8, the “Vasodilation at 0.1%” value (skin of human volunteers) was “No” and the “Vasodilation at 1.0%” value (skin of human volunteers) was “Yes”. For the same compound, the “Vasodilation at 1.0%” value (skin of human volunteers; listed as C10) was “caused vasodilation”.

For CCCCCCCCCCCOC(=O)c1cccnc1 [11 carbons], the “Vasodilation at 0.1%” value (skin of human volunteers) was “No” and the “Vasodilation at 1.0%” value (skin of human volunteers) was “Slight”.

In the case of CCCCCCCCCCCCOC(=O)c1cccnc1 [12 carbons], the logP ([1]; octanol/water) is reported as 6.6, the “Vasodilation at 0.1%” value (skin of human volunteers) is reported as “No” and the “Vasodilation at 1.0%” value (skin of human volunteers) is reported as “No”.

For CCCCCCCCCCCCCOC(=O)c1cccnc1 [13 carbons], the logP [1] was 7.5, the “Vasodilation at 0.1%” value (skin of human volunteers) was “No” and the “Vasodilation at 1.0%” value (skin of human volunteers) was “No”.

With CCCCCCCCCCCCCCOC(=O)c1cccnc1 [14 carbons] the logP ([1]; octanol/water) was 7.6, the “Vasodilation at 0.1%” value (skin of human volunteers) was “No” and the “Vasodilation at 1.0%” value (skin of human volunteers) was “No”.

With CCCCCCCCCCCCCCCOC(=O)c1cccnc1 [15 carbons] the logP [1] was 8.3, the “Vasodilation at 0.1%” value (skin of human volunteers) was “No” and the “Vasodilation at 1.0%” value (skin of human volunteers) was “No”.

With CCCCCCCCCCCCCCCCOC(=O)c1cccnc1 [16 carbons] the logP [1] was 9.2, the “Vasodilation at 0.1%” value (skin of human volunteers) was “No” and the “Vasodilation at 1.0%” value (skin of human volunteers) was “No”.

For CCCCCCCCCCCCCCCCCCOC(=O)c1cccnc1 [18 carbons], the logP [1] was 9.7, the “Vasodilation at 0.1%” value (skin of human volunteers) was “No” and the “Vasodilation at 1.0%” value (skin of human volunteers) was “No”.

With CCCCOC(=O)c1ccccc1 [Butyl benzoate, reference compound] the “effect on the increase in oxygen content caused by octyl niacin ester” value (skin; lotion containing octyl niacin ester (0.1 %) and 0.1 % butyl benzoate versus 0.1% octyl niacin ester lotion, Figure 4) was “blocked the increase in oxygen content” and the chromatographic logP ([1]; octanol/water) was 3.5.
